Measured values from article PMC11653397, “Elucidating the Metabolism of Chiral PCB95 in Wildtype and Transgenic Mouse Models with Altered Cytochrome P450 Enzymes Using Intestinal Content Screening” (Chemical Research in Toxicology, 2024).
Values joined by “and” are separate entries in the source; they are usually repeats but may differ in a detail not shown here. Equal values may be shown once. Read-outs that look alike come from different tables or passages of the source.

Legend:
[1] = Atropselective GC-ECD analysis (enantiomeric fraction) of PCB95 in intestinal content; assay type: in vivo, mice; conditions: for Enantiomeric fraction (EF) of PCB95 residues in the intestinal content: EF=AE1/(AE1+AE2), racemic standard EF 0.498±0.004, oral 1.0 mg/kg bw, 24 h
Method: Atropselective analyses of PCB95 were performed using an Agilent 7890A gas chromatograph with a ^63Ni-μECD detector and a Chirasil-Dex CB capillary column (25 m length, 250 μm inner diameter, 0.25 μm film thickness; Agilent, Santa Clara, CA, USA).[52] The following temperature program was used: 50 °C, hold for 1 min, 10 °C/min to 150 °C, hold for 65 min, 15 °C/min to 200 °C, and hold for 15 min. The injector and detector temperatures were 250 °C. Helium was used as carrier gas with a flow rate of 3.0 mL/min; argon-methane 5% was used as makeup gas with a 60 mL/min flow rate. The enantiomeric fraction (EF) values were calculated with the valley drop method[55] as EF = AE1/(AE1 + AE2), where AE1 and AE2 are the peak area of the first (E1) and the second eluting (E2) atropisomers, respectively.

[2] = GC-MS/MS levels of PCB95 and total hydroxylated metabolites in intestinal content of orally exposed mice; conditions: for concentration at 24 h: mouse, intestinal content (distal colon and rectum), po, 1 mg/kg
Method: The intestinal content samples used in this study were generated as part of a published study of the atropselective disposition of PCB95 and its hydroxylated metabolites in mice.[48] […] This PCB dose is frequently used in PCB developmental neurotoxicity studies in rodent models.[21],[49]−[52] Blank tissue samples to assess the background contamination with PCB95 were generated in parallel by administering corn oil alone to mice (1–3 mice per group). The animals were euthanized 24 h after exposure, and intestinal content samples from the dissected distal colon and rectum were collected. Samples were stored at −80 °C in separate plastic bags and shipped on dry ice to the University of Iowa for analysis.
PCB95 and total OH-PCB95 metabolite levels were determined in intestinal content samples after deconjugation of sulfate and glucuronide conjugates using published methods with modifications.[53] Briefly, intestinal content samples (50 ± 22 mg, n = 38) were homogenized with a TissueRuptor (Qiagen, Hilden, Germany) in 3 mL of 0.2 M sodium acetate buffer (pH 5) in glass tubes and spiked with 4-PCB52 sulfate (100 ng in DMSO) as a surrogate standard. After adding 50 μL of sulfatase (type H-2 from Helix pomatia, Sigma-Aldrich, Burlington, MA, USA), the samples were kept at 37 °C for 16 h in a shaking water bath. Samples were quenched with 1 mL of 6 M HCl, and the surrogate standards (50 ng of PCB117 in isooctane and 50 ng of 4′-159 in methanol) were added to the incubation system. Subsequently, 5 mL of 2-propanol and 5 mL of a 1:1 hexane–MTBE mixture (v/v) were added. The samples were inverted for 5 min and centrifuged at 1690g for 5 min to facilitate the phase separation. Next, the organic phases were transferred to new glass tubes with 3 mL of 1% KCl solution, the aqueous phases were re-extracted with 3 mL of hexane, and the organic phases were combined with the above extract. After inverting and centrifugation, the organic phases were collected, and the aqueous KCl phases were re-extracted with 3 mL of hexane. The combined extracts were evaporated to near dryness using a Savant SpeedVac SPD210 vacuum concentrator (Thermo Scientific, Waltham, MA, USA) coupled with an RVT5105 refrigerated vapor trap (Thermo Scientific, Waltham, MA, USA), and each sample was reconstituted with 0.5 mL of hexane.
Five drops of methanol and 0.5 mL of diazomethane (about 5 mmol) in diethyl ether were added to the intestinal content extracts to derivatize the OH-PCBs.[43] The samples were stored at 4 °C for approximately 16 h for derivatization, and excess diazomethane was removed under a gentle stream of nitrogen in a fume hood. The extract was reconstituted to 0.5 mL of dichloromethane and was loaded onto a glass SPE cartridge filled with 2 g of acidified silica gel (silica gel/H2SO4, 2:1, w/w) with 0.2 g of deactivated silica gel on the bottom.[14] The PCB and metabolites were eluted from the SPE cartridge with 14 mL of dichloromethane; the eluent was concentrated with a Savant SpeedVac SPD210 vacuum concentrator (Thermo Scientific) to near dryness, and the solvent was exchanged to 4 mL of hexane. The extracts were treated with 4 mL of concentrated sulfuric acid for further lipid removal.[14] The organic phase was concentrated to near dryness with a Savant SpeedVac SPD210 vacuum concentrator (Thermo Scientific) and spiked with an internal standard (50 ng of PCB204 in isooctane) for gas chromatographic quantification of PCB95 and its hydroxylated metabolites (as methylated derivatives).
PCB95 and metabolite determinations were conducted on an Agilent 7890B gas chromatograph equipped with an Agilent 7000D Triple Quad and an Agilent 7693 autosampler in the multiple reaction monitoring setting (GC–MS/MS).[14] Gas chromatographic separations were performed with an SPB-Octyl capillary column (30 m length, […], 0.25 μm film thickness; Supelco, Bellefonte, PA, USA).

[3] = mouse hepatic microsomes; cited from earlier work
[4] = rat hepatic microsomes; cited from earlier work
[5] = design: method as in doi:10.1016/0045-6535(75)90032-6; conditions: mice exposed orally to PCB95; cited from earlier work
[6] = design: method as in doi:10.1016/0045-6535(75)90032-6; conditions: rats exposed orally to PCB95; cited from earlier work
CYP2A6 = tested on: CYP2A6; design: method as in PMID 30576102, PMID 27989147; conditions: pooled human liver microsomes, recombinant cytochrome P450 enzymes; cited from earlier work
[7] = female, CYP2A6-transgenic/Cyp2abfgs-null (KI)
[8] = male, CYP2A6-transgenic/Cyp2abfgs-null (KI)
[9] = two-way ANOVA with Bonferroni correction

| Compound | concentration at 24 h [2, 7] [ng/g] | concentration at 24 h ([2]; female, Cyp2abfgs-null (KO)) [ng/g] | concentration at 24 h ([2]; female) [ng/g] | concentration at 24 h [2, 8] [ng/g] | concentration at 24 h ([2]; male, Cyp2abfgs-null (KO)) [ng/g] | concentration at 24 h ([2]; male) [ng/g] | Rank among PCB95 metabolites formed by liver microsomes [3] | other results |
| --- | --- | --- | --- | --- | --- | --- | --- | --- |
| Clc1ccc(Cl)c(-c2c(Cl)ccc(Cl)c2Cl)c1 [PCB95, 2,2′,3,5′,6-pentachlorobiphenyl] | 110 ± 95 | 26 ± 20 | 26 ± 18 | 33 ± 48 | 139 ± 265 | 39 ± 40 | – | Enantiomeric fraction (EF) of PCB95 residues in the intestinal content ([1]; FKI (n=4)): 0.44±0.03; Enantiomeric fraction (EF) of PCB95 residues in the intestinal content ([1]; FKO (n=6)): 0.44±0.05; Enantiomeric fraction (EF) of PCB95 residues in the intestinal content ([1]; FWT (n=6), 1 mg/kg): 0.39±0.05 and 0.39; Enantiomeric fraction (EF) of PCB95 residues in the intestinal content ([1]; MKI (n=5)): 0.40±0.03; Enantiomeric fraction (EF) of PCB95 residues in the intestinal content ([1]; MKO (n=7), 1 mg/kg): 0.45±0.04 and 0.45; Enantiomeric fraction (EF) of PCB95 residues in the intestinal content ([1]; MWT (n=5)): 0.41±0.05; PCB95 levels in the intestinal content, FKI vs MKI mice [2, 9]: higher; PCB95 levels in the intestinal content, MKO vs MKI mice [2, 9]: significantly higher |
| Oc1c(O)c(Cl)c(-c2cc(Cl)ccc2Cl)c(Cl)c1Cl [4,5-95, 3,4,6-trichloro-5-(2,5-dichlorophenyl)benzene-1,2-diol] | 1670 ± 1290 | 527 ± 255 | 1090 ± 492 | 570 ± 376 | 1030 ± 507 | 1410 ± 574 | – | Rank among OH-PCB95 metabolites in intestinal content ([2]; all intestinal content samples, all exposure groups): major metabolite |
| Oc1cc(Cl)c(-c2cc(Cl)ccc2Cl)c(Cl)c1Cl [4-95, 2,2′,3,5′,6-pentachlorobiphenyl-4-ol] | 434 ± 352 | 192 ± 70 | 248 ± 109 | 160 ± 134 | 177 ± 68 | 238 ± 134 | minor metabolites | – |
| Oc1cc(Cl)c(Cl)c(-c2cc(Cl)ccc2Cl)c1Cl [5-95, 2,2′,3,5′,6-pentachlorobiphenyl-5-ol] | 934 ± 790 | 359 ± 147 | 544 ± 295 | 300 ± 256 | 333 ± 123 | 424 ± 279 | major PCB95 metabolite | Rank among PCB95 metabolites formed by hepatic microsomes [4]: major PCB95 metabolite; Rank among PCB95 metabolites in feces [5]: major metabolite; Rank among PCB95 metabolites in feces [6]: major metabolite |
| Oc1cc(Cl)c(-c2c(Cl)ccc(Cl)c2Cl)cc1Cl [4'-95, 2,2′,3,5′,6-pentachlorobiphenyl-4′-ol] | 764 ± 831 | 414 ± 254 | 356 ± 192 | 298 ± 240 | 447 ± 159 | 452 ± 269 | minor metabolites | Rank among PCB95 metabolites formed by human liver microsomes and recombinant P450 (CYP2A6) (CYP2A6): major metabolite |
| Oc1c(Cl)cc(Cl)c(-c2cc(Cl)ccc2Cl)c1Cl [3-103, 2,4,6-trichloro-3-(2,5-dichlorophenyl)phenol] | 17 ± 11 | 14 ± 7 | 14 ± 6 | 6 ± 6 | 6 ± 2 | 7 ± 4 | – | – |
| Clc1ccc(Cl)c(-c2c(Cl)ccc(Cl)c2Cl)c1 [aS-PCB95] | – | – | – | – | – | – | – | Atropisomeric enrichment in intestinal content ([1]; all intestinal content samples, irrespective of sex and genotype): enriched |
